Laboratory results reported in patent publication US20230129258A1, “HETEROTANDEM BICYCLIC PEPTIDE COMPLEXES” (BicycleTx Limited, priority 2019, published 2023).
Several values for one entry are separate records, joined by “and”; a condition that tells them apart may be missing. Equal entries are not always repeated. Where two headings read alike, the source gives them in different places. Starred links: 1 amine or outer side, 2 acyl side, 3 side chain; linkers in the order of their positions; H or OH if unused. Positions of bridges follow the written chain, without caps; N, C: chain ends. Non-standard residues stand in square brackets, D forms with d. Chains are numbered I, II in the order given. X1 = O=C(CCOCCOCCOCCN(CCOCCOCCOCCn1cc(CCC(=O)[*:2])nn1)CCOCCOCCOCCn1cc(CCC(=O)[*:3])nn1)[*:1]; TATA = O=C(CC[*:1])N1CN(C(=O)CC[*:2])CN(C(=O)CC[*:3])C1; d1Nal = N[C@H](Cc1cccc2ccccc12)C(=O)O; Hyp = O=C(O)[C@@H]1C[C@@H](O)CN1; hArg = N=C(N)NCCCC[C@H](N)C(=O)O; tBuAla = CC(C)(C)C[C@H](N)C(=O)O; Nle = CCCC[C@H](N)C(=O)O

How the values were obtained:
rat Nectin-4 [1] = biological target: T1, rat Nectin-4 (Rattus norvegicus, UniProt D3ZET1); test: SPR direct binding to biotinylated Nectin-4 extracellular domain, rat
T1 sequence (D3ZET1 31-509): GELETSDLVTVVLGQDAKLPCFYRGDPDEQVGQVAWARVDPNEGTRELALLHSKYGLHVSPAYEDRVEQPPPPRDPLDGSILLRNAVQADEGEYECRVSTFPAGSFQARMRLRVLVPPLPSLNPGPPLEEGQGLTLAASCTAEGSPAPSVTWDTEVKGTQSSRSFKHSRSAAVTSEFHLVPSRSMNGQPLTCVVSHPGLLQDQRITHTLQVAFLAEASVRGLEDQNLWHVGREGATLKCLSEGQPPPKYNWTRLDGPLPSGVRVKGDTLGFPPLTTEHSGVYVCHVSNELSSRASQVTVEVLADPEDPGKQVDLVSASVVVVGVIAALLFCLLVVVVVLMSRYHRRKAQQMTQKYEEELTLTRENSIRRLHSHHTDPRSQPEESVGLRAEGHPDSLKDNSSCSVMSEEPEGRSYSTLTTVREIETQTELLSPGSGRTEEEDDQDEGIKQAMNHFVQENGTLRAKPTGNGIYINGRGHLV
From the text: The binding of BCY11863 to its primary target Nectin-4 and CD137 was characterized using surface plasmon resonance (SPR).

rat Nectin-4 [2] = biological target: T2, rat Nectin-4 (Rattus norvegicus, UniProt D3ZET1); test: Multicomponent SPR: Nectin-4 binding to complex captured on biotinylated human CD137, rat Nectin-4
T2 construct: extracellular domain using biotinylated human
From the text: To understand whether the binding of BCY11863 to Nectin-4 was altered in the context of the ternary complex, i.e. when also bound to CD137, a multicomponent SPR binding assay was developed. BCY11863 was first captured to human CD137 immobilized on the SPR chip surface and then Nectin-4 from different species were passed over the chip to determine their affinities to the captured BCY11863 (see FIG. 21C). The affinities to Nectin-4 were generally maintained in the presence of CD137 binding as shown below: […]
T2 sequence (Q07011 24-186 partner, one chain of several): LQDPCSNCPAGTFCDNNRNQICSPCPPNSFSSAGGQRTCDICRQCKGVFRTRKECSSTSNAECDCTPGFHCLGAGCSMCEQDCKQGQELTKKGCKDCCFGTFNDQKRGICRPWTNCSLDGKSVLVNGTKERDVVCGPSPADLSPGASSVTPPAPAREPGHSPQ

[3] = tested on: Nectin-1, Nectin-2, Nectin-3, Nectin-like-1, Nectin-like-2, Nectin-like-3, Nectin-like-4, Nectin-like-5; test: Nectin-4 paralogue screening by SPR; format: binding; conditions: biotinylated targets on streptavidin surface
Experimental: Nectin-4 Paralogue screening: Binding of BCY11863 was assessed using SPR against Nectin-1 (2880-N1, R&D Systems), Nectin-2 (2229-N2, R&D Systems), Nectin-3 (3064-N3, R&D Systems), Nectin-like-1 (3678-S4-050, R&D Systems), Nectin-like-2 (3519-S4-050, R&D Systems), Nectin-like-3 (4290-S4-050, R&D Systems), Nectin-like-4 (4164-S4, R&D Systems) and Nectin-like-5 (2530-CD-050, R&D Systems) by labelling them with biotin and immobilizing them on a streptavidin surface.

human PBMCs = test: Human PBMC co-culture cytokine secretion assay with EphA2-expressing tumor cells (MC38, HT-1080, HT29); format: cell-based; conditions: anti-CD3, 48 h, read-out: EC50 of IL-2 cytokine secretion
Experimental: […] MC38 were cultured in Dulbecco's Modified Eagle Medium supplemented with 10% heat inactivated Fetal Bovine Serum (FBS), 1× Penicillin/Streptomycin, 10 mM HEPES, and 2 mM L-Glutamine (referred to as R10 medium). Frozen PBMCs from healthy human donors were thawed and washed once in room temperature PBS with benzonase, and then resuspended in RPMI supplemented with 10% heat inactivated Fetal Bovine Serum (FBS), 1× Penicillin/Streptomycin, 10 mM HEPES, and 2 mM L-Glutamine (herein referred to as R10 medium). 100 μl of PBMCs (1,000,000 PBMCs/ml) and 100 μl of tumor cells (100,000 tumor cells/ml) (Effector:Target cell ratio (E:T) 10:1) were plated in each well of a 96 well flat bottom plate for the co-culture assay. 100 ng/ml of soluble anti-CD3 mAb (clone OKT3) was added to the culture on day 0 to stimulate human PBMCs. Test, control compounds, or vehicle controls were diluted in R10 media and 50 μL was added to respective wells to bring the final volume per well to 250 μL. Plates were covered with a breathable film and incubated in a humidified chamber at 37° C. with 5% CO2 for two days. […] Briefly, the standards and samples were added to a black 96 well plate. Microparticle cocktail (provided in Luminex kit, R&D Systems) was added and shaken for 2 hours at room temperature. The plate was washed 3 times using a magnetic holder. Biotin cocktail was then added to the plate and shaken for 1 hour at RT. The plate was washed 3 times using a magnetic holder. Streptavidin cocktail was added to the plate and shaken for 30 minutes at RT. The plates were washed 3 times using a magnetic holder, resuspended in 100 μL of wash buffer, shaken for 2 minutes at RT, and read using the Luminex 2000. Raw data were analyzed using built-in Luminex software to generate standard curves and interpolate protein concentrations, all other data analyses and graphing were performed using Excel and Prism software. Data represents one study with three independent donor PBMCs tested in experimental duplicates.
Similarly, PBMCs from healthy donors were co-cultured with EphA2 expressing cancer cells (MC38 and HT-1080) at a ratio of 5:1 in presence of anti-CD3 and BCY13272. […]

CD137 = CD137 (Homo sapiens, UniProt Q07011); test: CD137 reporter assay (Promega, Jurkat cells) in co-culture with EphA2-expressing tumor cells (A549, PC3, HT29); format: cell-based; design: host or cells: Jurkat reporter cells; conditions: for EC50: EC50 (nM); for EC50 / Emax: individual replicates
How it was run: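 Promega CD137 luciferase reporter Jurkat cells co-cultured with tumor cells (RKO for PD-L1; A549, PC3, HT29 for EphA2) and serially diluted test articles in RPMI + 1% FBS, 6 h at 37° C. Bio-Glo luminescence as fold change over cells alone; log(agonist)-response fit gives EC50 (nM) and max fold induction.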

Sequence of CD137 (Q07011 24-255): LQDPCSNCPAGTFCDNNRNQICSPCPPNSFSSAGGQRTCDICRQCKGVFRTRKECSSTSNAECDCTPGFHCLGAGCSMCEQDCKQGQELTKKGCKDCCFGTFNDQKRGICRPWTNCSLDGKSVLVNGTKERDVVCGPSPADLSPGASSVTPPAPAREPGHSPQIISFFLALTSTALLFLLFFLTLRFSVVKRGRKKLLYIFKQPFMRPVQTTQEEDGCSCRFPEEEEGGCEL

Compound	Kd (rat Nectin-4 [1]; KD, biotinylated ECD captured on streptavidin chip) [nM]	Kd (rat Nectin-4 [1]; SPR KD Rat (25° C.), Direct Binding, biotinylated Nectin-4 extracellular domain, 25° C.) [nM]	Kd (rat Nectin-4 [2]) [nM]	binding to Nectin-4 paralogues: concentration up to which no binding was shown [3] [nM]	EC50 (human PBMCs; human PBMC-HT-1080 co-culture) [nM]	EC50 (human PBMCs; human PBMC-MC38 co-culture) [nM]	EC50 (CD137; co-culture with HT-29)	EC50 (CD137; co-culture with PC-3)	CD137 activation in CD137 reporter assay (CD137; FIG. 16, PC3, A549 and HT29)	Emax (CD137; co-culture with A549)	Emax (CD137; co-culture with HT-29)	Emax (CD137; co-culture with PC-3)
CCCC[C@@H]1NC(=O)[C@H](Cc2ccc(O)cc2)NC(=O)[C@@H]2CCCN2C(=O)[C@H](CC(=O)O)NC(=O)[C@H](C)NC(=O)[C@H](Cc2ccccc2)NC(=O)[C@@H]2CSCCC(=O)N3CN(CN(C3)C(=O)CCSC[C@@H](C(=O)N[C@@H](C)C(N)=O)NC1=O)C(=O)CCSC[C@H](NC(C)=O)C(=O)N[C@@H](CC(C)(C)C)C(=O)N1CCC[C@H]1C(=O)N[C@@H](CCC(=O)O)C(=O)N[C@H](CCCCNC(=O)CCc1cn(CCOCCOCCOCCN(CCOCCOCCOCCC(=O)N[C@H]3CSCCC(=O)N4CN5CN(C4)C(=O)CCSC[C@H](NC(=O)[C@@H](CC(=O)O)NC(=O)[C@H](Cc4cccc6ccccc46)NC(=O)[C@@H]4CCCN4C3=O)C(=O)N[C@@H](CCSC)C(=O)N[C@@H](CCCCNC(=N)N)C(=O)N[C@@H](CC(=O)O)C(=O)N[C@@H](Cc3c[nH]c4ccccc34)C(=O)N[C@@H](CO)C(=O)N[C@@H]([C@@H](C)O)C(=O)N3CCC[C@H]3C(=O)N3C[C@H](O)C[C@H]3C(=O)N[C@@H](Cc3c[nH]c4ccccc34)C(=O)N[C@H](C(N)=O)CSCCC5=O)CCOCCOCCOCCn3cc(CCC(=O)NCCCC[C@H]4NC(=O)[C@H](CCC(=O)O)NC(=O)[C@@H]5CCCN5C(=O)[C@H](CC(C)(C)C)NC(=O)[C@@H](NC(C)=O)CSCCC(=O)N5CN6CN(C5)C(=O)CCSC[C@H](NC(=O)[C@H](Cc5ccc(O)cc5)NC(=O)[C@@H]5CCCN5C4=O)C(=O)N[C@@H](Cc4ccccc4)C(=O)N[C@@H](C)C(=O)N[C@@H](CC(=O)O)C(=O)N4CCC[C@H]4C(=O)N[C@@H](Cc4ccc(O)cc4)C(=O)N[C@@H](CCCC)C(=O)N[C@H](C(=O)N[C@@H](C)C(N)=O)CSCCC6=O)nn3)nn1)C(=O)N1CCC[C@H]1C(=O)N[C@@H](Cc1ccc(O)cc1)C(=O)N2 [BCY11863]	5 to 27	15 ± 1	25 ± 2	> 5000	–	–	–	–	–	–	–	–
I: A[hArg]DC[Hyp]LVNPLCLEP[d1Nal]WTC-NH2 / II: Ac-C[tBuAla]PE[dK]PYCFADPY[Nle]CA-NH2 / III: Ac-C[tBuAla]PE[dK]PYCFADPY[Nle]CA-NH2 (linker I:4-I:11-I:18, II:1-II:8-II:15, III:1-III:8-III:15 via TATA; linker I:N-II:5-III:5 via X1) [BCY13272]	–	–	–	–	0.55 ± 0.47	0.79 ± 0.24	0.567 nM and 0.187 nM and 0.205 nM	0.0805 nM and 0.0898 nM and 0.245 nM	induces strong CD137 activation	25.7 fold and 23.6 fold and 30.2 fold	36.5 fold and 26 fold and 36.4 fold	44.2 fold and 53 fold and 44.5 fold
